Our source for the TGI and GI50 values is PubChem BioAssay (NCI).

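Method: 48-hour compound exposure of cells in 96-well plates, five concentrations, linear interpolation of endpoints. Abbreviation: GI50, concentration required for 50% inhibition of growth. TGI: total growth inhibition.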

What all share (assay): inhibition of tumour cell growth, NCI panel, 48 h
Assay [1] deals with HS 578T breast.
Assay [2] relates to LOX IMVI melanoma.
For assay [3], the system named is MDA-N.
For assay [4], the system named is NCI-H226 lung.
Assay [5] concerns NCI/ADR-RES ovarian.
The subject of assay [6] is UACC-257 melanoma.
Assay [7] has as its system DMS 114 small cell lung.
The subject of assay [8] is DMS 273 small cell lung.
Assay [9] has as its system HOP-18 NSCLC.
Assay [10] has as its system KM20L2 colon.
Assay [11] relates to LXFL 529 NSCLC.

For `CC(=O)Oc1cccc2c(/C=N/NC(N)=S)ncc(C)c12`, the TGI was above 73 µM in [1]; 8.98 µM in assay [2]; 21 µM in assay [3]; 12.8 µM in assay [4]; 9.47 µM in assay [5]; above 41.2 µM in assay [6].
As to `NNC(N)Nc1ccccc1` (stereo not drawn), the TGI in assay [1], in [3], in [4], in [5] and in [6] was above 100 µM throughout.
For `C=CC(Br)(CBr)CCC(Cl)C(C)C` (stereo not drawn), the TGI came out at 8.01 µM in [1]; 2.46 µM in [2]; 2.8 µM in assay [3]; 27.7 µM in assay [4]; 5.97 µM in assay [6].
As for `CCC[CH2][Ge]([CH2]CCC)([CH2]CCC)[O]C(=O)CC(=O)c1ccccc1`, the GI50 in assay [7] is 0.0424 µM; in [8], 0.752 µM; in assay [9], 10.8 µM; in [10] it was 0.77 µM; in assay [2] it was 0.313 µM; in assay [11], 0.325 µM. In [4], the GI50 was 3.23 µM. Besides, the TGI in assay [7] came out at 3.32 µM; in assay [8], 13.4 µM; in assay [9], 22.7 µM; in assay [10], 17 µM; in [2] it was 1.72 µM; in assay [11], 13.7 µM. The TGI in assay [4] amounted to 17.2 µM.
Turning to `c1ccc(N=C2SC(=NC3CCCCC3)N(C3CCCCC3)C2=Nc2ccccc2)cc1`, the TGI in [1], in assay [3], in assay [4] and in [5] was above 100 µM each time.
On to `NCCCNc1nc2ccccc2c2c(=O)c3cc(OC(F)(F)F)ccc3sc12`, for which, in [5], the GI50 is 1.73 µM and the TGI amounted to 3.41 µM.
As to `Cc1cc(=O)[nH]c(NN2C(Cl)C(=O)C2c2cccc(O)c2)n1` (stereo not drawn), the TGI in assay [7] is 34.8 µM; in assay [8], above 100 µM; in assay [9], above 100 µM; in assay [10], 98.5 µM; in [2], above 100 µM; in assay [11] it was above 100 µM. The molecule also showed a TGI in assay [6] above 100 µM.
In the case of `NC(CCCCP(=O)(O)O)C(=O)O` (stereo not drawn), the TGI in [1], in assay [2], in [3], in [5] and in [6] was above 100 µM throughout.
